Data on 18 compounds can be found in US9073927B2, “Inhibitors of PI3 kinase” (FUNDACION CENTRO NACIONAL DE INVESTIGACIONES ONCOLOGICAS …, priority 2010, dated 2015).

For one assay, the target named is T1, PI3K (p110α/p85α) (Homo sapiens, UniProt P42336).
T1 construct: purchased Carna Biosciences 07CBS-0402A
Put plainly: PI3K activity assay (ADP Hunter Plus). Format: biochemical. On the procedure:
The kinase activity was measured by using the commercial ADP Hunter™ Plus assay available from DiscoveRx (#33-016), which is a homogeneous assay to measure the accumulation of ADP, a universal product of kinase activity. The enzyme, PI3K (p110α/p85α was purchased from Carna Biosciences (#07CBS-0402A). The assay was done following the manufacturer recommendations with slight modifications: Mainly the kinase buffer was replace by 50 mM HEPES, pH 7.5, 3 mM MgCl2, 100 mM NaCl, 1 mM EGTA, 0.04% CHAPS, 2 mM TCEP and 0.01 mg/ml BGG. The PI3K was assayed in a titration experiment to determine the optimal protein concentration for the inhibition assay. To calculate the IC50 of the ETP-compounds, serial 1:5 dilutions of the compounds were added to the enzyme at a fixed concentration (2.5 μg/ml. The enzyme was preincubated with the inhibitor and 30 μM PIP2 substrate (P9763, Sigma) for 5 min and then ATP was added to a final 50 μM concentration. Reaction was carried out for 1 hour at 25° C. Reagent A and B were sequentially added to the wells and plates were incubated for 30 min at 37° C. Fluorescence counts were read in a Victor instrument (Perkin Elmer) with the recommended settings (544 and 580 nm as excitation and emission wavelengths, respectively). Values were normalized against the control activity included for each enzyme (i.e., 100% PI3 kinase activity, without compound). These values were plot against the inhibitor concentration and were fit to a sigmoid dose-response curve by using the Graphad software.

The test system of a further assay is phospho-Ser-473-Akt. The experiment in a line: PI3K signalling: AKT phosphorylation inhibition, Western blot analysis. Format: cell-based. The note with it: read-out: p-AKT (IC50, WB). On the procedure: AKT Phosphorylation Inhibition Western Blot Analysis
Subconfluent cells were incubated under different conditions and washed twice with TBS prior to lysis. Lysis buffer was added containing 50 mM Tris HCl, 150 mM NaCl, 1% NP-40, 2 mM Na3VO4, 100 mM NaF, 20 mM Na4P2O7 and protease inhibitor cocktail (Roche Molecular Biochemicals). The proteins were resolved on 10% SDS-PAGE and transferred to nitrocellulose membrane (Schleicher & Schuell, Dassel, Germany). The membranes were incubated overnight at 4° C. with antibodies specific for Akt, phospho-Ser-473-Akt (Cell Signaling Technology) and α-tubulin (Sigma), they were washed and then incubated with IRDye800 conjugated anti-mouse and Alexa Fluor 680 goat anti-rabbit IgG secondary antibodies. The bands were visualized using an Odyssey infrared imaging system (Li-Cor Biosciences). Compounds of the invention have a range of in vitro cell potency activities from about 1 nM to about 10 μM.
Compounds of the examples/invention were tested in the PI3K signalling cellular assay described hereinbefore (Western Blot Analysis), which measures AKT phosphorylation inhibition. Cellular activity of representative compounds, is represented in the table below: […]

The test system of the next assay is A549 cells. The experiment in a line: In vitro cell proliferation / combination assay (MTT), A549. Format: cell-based. Particulars: for Synergy / Combination Index (Cl): A549; for Combination Index (Cl): Chou and Talalay; for EC50: Homo sapiens, A549, Lung, Ras G12S. On the procedure: (§1) Cells were seeded at 10000-50000 cells/well in 96 plates for 16 h. On day two, nine serial 1:3 compound dilutions were made in DMSO in a 96 well plate. The compounds were added to duplicate wells in 96-well cell plates a using a FX BECKMAN robot (Beckman Coulter) and incubated at 37° C. with CO2 atmosphere. After 3 days, relative numbers of viable cells were measured by MTT (Sigma) according to manufacturer's instruction and read on EndVision (Perkin Elmer). EC50 values were calculated using Activityl)ase from IDBS. Drugs in combination assays were dosed starting at 4×EC50 concentrations and continuing with serial dilutions 1:2. PI3K inhibitors and chemotherapeutic agents were added simultaneously.
An additional exemplary in vitro cell proliferation assay includes the following steps: • 1. An aliquot of 200 μl of cell culture containing optimal density (between 10^4-5×10^4 cells) (see Examples for cell lines and tumour type) in medium was deposited in each well of a 96-well flat bottom plates. • 2. Control wells were prepared containing medium without cells • 3. The compound was added to the experimental wells and incubated for 3 days. • 4. One quarter volume of MTT reagent with respect to the volume of cell culture medium present in each well was added and incubated 24 h at 37° C. with 5% CO2. • 5. One quarter volume of solubilisation buffer with respect to the volume of cell culture medium present in each well was added and incubated 24 h at 37° C. with 5% CO2. • 6. Formazan salt formed was recorded and reported in graphs as relative growth vs. cells treated only with dmso.
The individual measured EC50 values against the particular cell of the exemplary compounds and of the chemotherapeutic agent are compared to the combination EC50 value. The combination Index (CI) score is calculated by the Chou and Talalay method (CalcuSyn software, Biosoft). A CI less 0.8 indicates synergy. A CI between 0.8 and 1.2 indicates additivity. A CI greater than 1.2 indicates antagonism.
The individual measured EC50 values against the particular cell of the exemplary compounds and of the chemotherapeutic agents are compared to the combination EC50 value. The combination Index (CI) score is calculated by the Chou and Talalay method (CalcuSyn software, Biosoft). A CI less 0.8 indicates synergy. A CI between 0.8 and 1.2 indicates additivity. A CI greater than 1.2 indicates antagonism.

Another assay relates to SKVO3 cells. Put plainly: In vitro cell proliferation / combination assay (MTT), SKVO3. Particulars: SKVO3, Ovarian, PIK3CA, p53. It counts as cell-based. As for the experimental part: as §1, with “PI3K inhibitors and chemotherapeutic agents were added simultaneously.” left out
An additional exemplary in vitro cell proliferation assay includes the following steps: • 1. […] Formazan salt formed was recorded and reported in graphs as relative growth vs. cells treated only with dmso.
The individual measured EC50 values against the particular cell of the exemplary compounds and of the chemotherapeutic agent are compared to the combination EC50 value. The combination Index (CI) score is calculated by the Chou and Talalay method (CalcuSyn software, Biosoft). […]
The individual measured EC50 values against the particular cell of the exemplary compounds and of the chemotherapeutic agents are compared to the combination EC50 value. The combination Index (CI) score is calculated by the Chou and Talalay method (CalcuSyn software, Biosoft). […]

Where [1] appears, read: combination of 2-4 with Lapatinib.
The mark [2] stands for this setting: combination of 2-4 with PD-0325901.
The mark [3] stands for this setting: compound alone, read-out: Compound No. 2-4 (comp. (A)) EC50.
Where [4] appears, read: therapeutic (comp. (B)) alone, read-out: Chemot. EC50.

Read-outs that look alike come from different tables or passages of the source.

T1 sequence (P42336 whole entry): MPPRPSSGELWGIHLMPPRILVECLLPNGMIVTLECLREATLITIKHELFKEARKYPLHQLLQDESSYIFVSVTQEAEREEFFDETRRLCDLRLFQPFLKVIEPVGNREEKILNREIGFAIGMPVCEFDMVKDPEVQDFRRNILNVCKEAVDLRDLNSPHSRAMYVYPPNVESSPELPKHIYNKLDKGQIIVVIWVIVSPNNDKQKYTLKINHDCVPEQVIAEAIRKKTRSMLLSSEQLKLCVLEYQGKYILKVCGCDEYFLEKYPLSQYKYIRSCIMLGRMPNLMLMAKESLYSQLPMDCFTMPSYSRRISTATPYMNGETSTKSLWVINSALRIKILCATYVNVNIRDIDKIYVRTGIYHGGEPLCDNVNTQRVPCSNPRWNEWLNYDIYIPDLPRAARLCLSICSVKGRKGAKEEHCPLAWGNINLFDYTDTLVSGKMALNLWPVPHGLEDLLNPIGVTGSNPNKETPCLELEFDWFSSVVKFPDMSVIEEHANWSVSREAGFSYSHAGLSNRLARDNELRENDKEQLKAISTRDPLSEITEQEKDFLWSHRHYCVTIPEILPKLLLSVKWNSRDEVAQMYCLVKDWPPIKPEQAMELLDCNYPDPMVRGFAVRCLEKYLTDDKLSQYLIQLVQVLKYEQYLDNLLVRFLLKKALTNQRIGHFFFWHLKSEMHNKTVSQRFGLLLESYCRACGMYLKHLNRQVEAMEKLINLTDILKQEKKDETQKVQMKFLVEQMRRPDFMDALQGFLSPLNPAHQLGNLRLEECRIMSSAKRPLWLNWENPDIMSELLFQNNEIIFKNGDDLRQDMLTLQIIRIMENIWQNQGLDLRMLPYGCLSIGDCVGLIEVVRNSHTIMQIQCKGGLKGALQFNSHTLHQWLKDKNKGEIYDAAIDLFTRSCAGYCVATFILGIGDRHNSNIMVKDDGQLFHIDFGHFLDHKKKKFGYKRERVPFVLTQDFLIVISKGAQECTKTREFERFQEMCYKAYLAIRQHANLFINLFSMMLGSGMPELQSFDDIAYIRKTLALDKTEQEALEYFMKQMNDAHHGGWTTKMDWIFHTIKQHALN
T1 sequence (P27986 whole entry partner): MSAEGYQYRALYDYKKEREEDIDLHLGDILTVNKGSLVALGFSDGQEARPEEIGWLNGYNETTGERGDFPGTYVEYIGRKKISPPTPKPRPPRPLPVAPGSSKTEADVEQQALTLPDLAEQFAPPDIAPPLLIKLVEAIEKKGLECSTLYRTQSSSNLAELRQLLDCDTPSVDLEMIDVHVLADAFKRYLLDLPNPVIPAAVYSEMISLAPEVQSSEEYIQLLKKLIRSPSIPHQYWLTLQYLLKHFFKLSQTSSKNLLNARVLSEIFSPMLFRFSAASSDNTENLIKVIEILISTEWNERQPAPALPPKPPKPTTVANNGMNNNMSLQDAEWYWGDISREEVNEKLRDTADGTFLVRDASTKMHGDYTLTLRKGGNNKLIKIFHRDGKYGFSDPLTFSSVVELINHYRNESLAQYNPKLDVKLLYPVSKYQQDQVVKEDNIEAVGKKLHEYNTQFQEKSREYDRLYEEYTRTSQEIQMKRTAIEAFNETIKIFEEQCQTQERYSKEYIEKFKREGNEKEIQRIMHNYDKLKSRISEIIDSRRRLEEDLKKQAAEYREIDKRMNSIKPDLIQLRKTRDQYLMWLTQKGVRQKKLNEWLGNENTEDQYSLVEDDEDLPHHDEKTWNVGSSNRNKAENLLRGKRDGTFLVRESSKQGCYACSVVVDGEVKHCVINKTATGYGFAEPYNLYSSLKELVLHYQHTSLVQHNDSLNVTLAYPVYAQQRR

`CS(=O)(=O)N1CCN(Cc2nc3c(N4CCOCC4)nc(-c4cccc5[nH]ncc45)cn3n2)CC1` [Compound 2-2]: the IC50 at PI3K (p110α/p85α) (Table 3, read-out: PI3Kα) was 128 nM.
Turning to `CS(=O)(=O)N1CCN(Cc2nc3c(N4CCOCC4)nc(-c4cnc(N)nc4)cn3n2)CC1` [Compound 2-3], the IC50 with phospho-Ser-473-Akt turned out to be 12 nM; at PI3K (p110α/p85α) (Table 3, read-out: PI3Kα), 3 nM.
As a reminder, the EC50 is the concentration giving half of the maximal effect. For `CS(=O)(=O)N1CCN(Cc2nc3c(N4CCOCC4)nc(-c4cnc(N)nc4)c(Cl)n3n2)CC1` [Compound 2-4], the IC50 with phospho-Ser-473-Akt came to 64 nM; at PI3K (p110α/p85α) (Table 3, read-out: PI3Kα) it was 1.4 nM. For the same compound, the Synergy result is given as “− (a combination index greater than 1.2)” with A549 cells (setting [1]) and “+++ (a combination index greater than 0.1 but lower than 0.3)” in the assay on A549 cells (setting [2]). In addition, the “Combination Index (Cl)” value in the assay with A549 cells (setting [1]) stood at 2.44; in the assay on A549 cells (setting [2]), 0.27. Moreover, the concentration giving a half-maximal response (EC50) in the assay on A549 cells (setting [3]) and with SKVO3 cells (setting [3]) was 1000 nM each time.
On to `OCc1cc2c(N3CCOCC3)nc(-c3cccc(O)c3)cn2n1` [Compound 3-2], for which the IC50 on PI3K (p110α/p85α) (Table 4, read-out: PI3Kα) turned out to be 174 nM.
As to `Cc1nnc2c(N3CCOCC3)nc(-c3cnc(N)nc3)cn12` [Compound 3-5], the IC50 at PI3K (p110α/p85α) (Table 4, read-out: PI3Kα) was determined as 165 nM.
The same measure, in the same setting: next, `Cc1nnc2c(N3CCOCC3)nc(-c3cccc(O)c3)cn12` [Compound 3-6]: 952 nM.
Regarding `CS(=O)(=O)N1CCN(Cc2cn3nc(-c4cnc(N)nc4)nc(N4CCOCC4)c3n2)CC1` [Compound 3-9], the IC50 in the assay on phospho-Ser-473-Akt amounted to 5 nM; at PI3K (p110α/p85α) (Table 4, read-out: PI3Kα), 3 nM.
For `CS(=O)(=O)N1CCN(Cc2cc3c(N4CCOCC4)nc(-c4cnc(N)nc4)cn3n2)CC1` [Compound 3-10, 5-[2-(4-methanesulfonyl-piperazin-1-ylmethyl)-4-morpholin-4-yl-pyrazolo[1,5-a]pyrazin-6-yl]-pyrimidin-2-ylamine] the same measures were 14 nM and 2 nM.
With `Oc1cccc(-c2cn3cncc3c(N3CCOCC3)n2)c1` [Compound 3-11], at PI3K (p110α/p85α) (Table 4, read-out: PI3Kα), the IC50 worked out at 317 nM.
In the case of `COc1cccc(-c2cn3cncc3c(N3CCOCC3)n2)c1` [Compound 3-12, 6-(3-methoxy-phenyl)-8-morpholin-4-yl-imidazo[1,5-a]pyrazine], the IC50 on PI3K (p110α/p85α) (Table 4, read-out: PI3Kα) was 2000 nM.
On to `CS(=O)(=O)N1CCC(NCc2cc3c(N4CCOCC4)nc(-c4cnc(N)nc4)cn3n2)CC1` [Compound 3-13, 5-{2-[(1-methanesulfonyl-piperidin-4-ylamino)-methyl]-4-morpholin-4-yl-pyrazolo[1,5-a]pyrazin-6-yl}-pyrimidin-2-ylamine], for which the IC50 at PI3K (p110α/p85α) (read-out: IC50 PI3Kα) stood at 58 nM.
Consider `COCCN(C)Cc1cc2c(N3CCOCC3)nc(-c3cnc(N)nc3)cn2n1` [Compound 3-14, 5-(2-{[(2-methoxy-ethyl)-methyl-amino]-methyl}-4-morpholin-4-yl-pyrazolo[1,5-a]pyrazin-6-yl)-pyrimidin-2-ylamine], for which the IC50 at PI3K (p110α/p85α) (read-out: IC50 PI3Kα) stood at 106 nM.
On the same count and under the same terms, as for `CS(=O)(=O)N1CCCN(Cc2cc3c(N4CCOCC4)nc(-c4cnc(N)nc4)cn3n2)CC1` [Compound 3-16, 5-[2-(4-methanesulfonyl-[1,4]diazepan-1-ylmethyl)-4-morpholin-4-yl-pyrazolo[1,5-a]pyrazin-6-yl]-pyrimidin-2-ylamine], the figure is 13 nM.
Consider `Nc1ncc(-c2cn3nc(CN4CCOCC4)cc3c(N3CCOCC3)n2)cn1` [Compound 3-17, 5-(4-morpholin-4-yl-2-morpholin-4-ylmethyl-pyrazolo[1,5-a]pyrazin-6-yl)-pyrimidin-2-ylamine], for which, at PI3K (p110α/p85α) (read-out: IC50 PI3Kα), the IC50 stood at 80 nM.
In the case of `CC(C)S(=O)(=O)N1CCN(Cc2cc3c(N4CCOCC4)nc(-c4cnc(N)nc4)cn3n2)CC1` [Compound 3-18, 5-{4-morpholin-4-yl-2-[4-(propane-2-sulfonyl)-piperazin-1-ylmethyl]-pyrazolo[1,5-a]pyrazin-6-yl}-pyrimidin-2-ylamine], the IC50 at PI3K (p110α/p85α) (read-out: IC50 PI3Kα) amounted to 6 nM.
Take `CS(=O)(=O)CCNCc1ccc(-c2ccc3ncnc(Nc4ccc(OCc5cccc(F)c5)c(Cl)c4)c3c2)o1` [Lapatinib, N-(3-chloro-4-(3-fluorobenzyloxy)phenyl)-6-(5-((2-(methylsulfonyl)ethylamino)-methyl)furan-2-yl)quinazolin-4-amine, reference compound]: in the assay with A549 cells (setting [4]), the EC50 is 1000 nM.
In the case of `O=C(NOC[C@H](O)CO)c1ccc(F)c(F)c1Nc1ccc(I)cc1F` [PD-0325901, (R)—N-(2,3-dihydroxypropoxy)-3,4-difluoro-2-(2-fluoro-4-iodophenylamino)benz-amide, reference compound], in the assay with A549 cells (setting [4]), the concentration for a half-maximal effect (EC50) turned out to be 1000 nM.
On to `CC(=O)O[C@@]12CO[C@@H]1C[C@H](O)[C@@]1(C)C(=O)[C@H](O)C3=C(C)[C@@H](OC(=O)[C@H](O)[C@@H](NC(=O)OC(C)(C)C)c4ccccc4)C[C@](O)([C@@H](OC(=O)c4ccccc4)[C@H]21)C3(C)C` [Taxotere, (2R,3S)—N-carboxy-3-phenylisoserine, N-tert-butyl ester, 13-ester with 5,20-epoxy-1,2,4,7,10,13-hexahydroxytax-11-en-9-one 4-acetate 2-benzoate, trihydrate, reference compound], for which, in the assay on SKVO3 cells (setting [4]), the EC50 was found to be 2000 nM.
